Test results reported in PMC10531337 (International Journal of Molecular Sciences, 2023).
pKd: −log10 of the molar value.

Molecular target: T1, epidermal growth factor receptor (EGFR) (Homo sapiens, UniProt P00533)
T1 construct: extracellular domain
Assay: SPR (Biacore S200, EGFR amine-coupled to CM5 chip, […] model); also BLI (Octet RED96) at […]
Assay type: binding

T1 sequence (P00533 25-645 limits assumed): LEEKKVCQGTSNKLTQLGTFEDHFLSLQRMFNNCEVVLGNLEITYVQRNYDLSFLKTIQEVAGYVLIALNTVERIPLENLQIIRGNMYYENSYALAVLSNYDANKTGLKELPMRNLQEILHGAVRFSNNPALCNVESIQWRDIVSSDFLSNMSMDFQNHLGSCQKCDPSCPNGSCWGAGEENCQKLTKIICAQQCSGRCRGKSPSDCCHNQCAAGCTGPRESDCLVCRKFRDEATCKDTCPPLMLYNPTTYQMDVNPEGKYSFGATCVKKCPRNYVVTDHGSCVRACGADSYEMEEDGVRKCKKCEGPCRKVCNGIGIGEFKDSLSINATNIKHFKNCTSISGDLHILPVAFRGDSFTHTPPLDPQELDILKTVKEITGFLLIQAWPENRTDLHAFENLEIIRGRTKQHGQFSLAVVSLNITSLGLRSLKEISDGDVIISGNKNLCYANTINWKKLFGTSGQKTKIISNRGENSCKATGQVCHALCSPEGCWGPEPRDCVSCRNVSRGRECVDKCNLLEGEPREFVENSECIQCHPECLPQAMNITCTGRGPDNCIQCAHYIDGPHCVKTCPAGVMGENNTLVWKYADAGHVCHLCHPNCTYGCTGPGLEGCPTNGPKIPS

With `O=C(O[C@@H]1Cc2c(O)cc(O)cc2O[C@@H]1c1cc(O)c(O)c(O)c1-c1c([C@H]2Oc3cc(O)cc(O)c3C[C@H]2OC(=O)c2cc(O)c(O)c(O)c2)cc(O)c(O)c1O)c1cc(O)c(O)c(O)c1` [compound 3, theasinensin A] the pKd was 5.15.
